Test results reported in US7521589B2, “Developmental animal model of temporal lobe epilepsy” (University of Prince Edward Island, priority 2003, dated 2009).

Assays:
Format in all cases: in vivo, rat
Sprague Dawley rats [1] = test: NIS-L syndrome during Morris Water Maze (MWM) testing
Protocol: Within 24 hr of birth, offspring of untimed-pregnant Sprague Dawley rats (Charles River Laboratories, St. Constant, PQ) were culled to 10 pups/litter (5 males and 5 females). […] These doses are well below those normally required to induce toxicity in animals of this age (Doucette, T. A. et al., Neurotox. Teratol. [2003] 25:473-479, and Doucette, T. A., et al., Neurotox. Teratol. [2000] 22:863-869). Pups were assessed daily until weaning (on PND 22) for overt signs of toxicity, and all pre- and post-weaning testing was conducted with the experimenter blind to treatment. All procedures were conducted in accordance with the guidelines of the Canadian Council on Animal Care. […] Rats received no additional drug treatment after PND 14. On PND 120, animals were tested for spatial learning and memory in the Morris Water Maze (MWM) (8 trials/day over 6 consecutive days), using a standard reversal procedure (McNamara, R. K. and Skelton, R. W., Brain Res. Brain Res. Rev. [1993] 18:33-49). While on the escape platform during the 60 second inter-trial interval, a significant number of DOM-treated rats presented with abnormal behaviour characterized by a combination of hunched body posture, facial clonus, mastication with tongue-protrusion, repetitive head extensions and bobbing, repetitive eye blinking/squinting, and vibrissae and ear twitching, often in combination with forelimb clonus. Presentation of all of the above behaviours was termed “novelty-induced seizure-like (NIS-L) syndrome”. Of note, the expression of this syndrome was not consequent to earlier drug-induced toxicity or seizures, nor was it spontaneous.
The Morris Water Maze (MWM) consisted of a circular tank measuring 1.5 m in diameter. Water temperature was maintained at approximately 21° C. and was made opaque by a layer of polypropylene pellets floated on the surface. Four points around the edge of the pool were arbitrarily designated as north (N), south (S), east (E), and west (W), allowing the apparatus to be divided into 4 corresponding quadrants (NE, SE, NW, SW). A clear plexiglass escape platform was submerged approximately 2 cm below the water surface and placed, initially, in the NE quadrant of the maze (alternate locations for the reversal task were implemented on Day 3 and Day 5). Extra-maze cues consisted of laboratory furniture and lights (held constant throughout the experiment). A video camera was mounted above the center of the pool and all performance was recorded for subsequent analyses. […] Escape latencies and inter-trial behaviour was recorded by observers blind to experimental treatment.

Sprague Dawley rats [2] = test: NIS-L syndrome in open field arena; settings: male rats; for animals displaying NIS-L in open field arena: tested PND 270
Protocol: To determine if the syndrome could be elicited by novel stimuli other than the MWM, all rats were tested in the Novel Water Maze (NWM) (Kant, G. J., Pharmacol. Biochem. Behav. [1993] 44:287-295) approximately 120 days after the MWM testing (i.e. PND 240).
The open field apparatus consisted of a 1.5 m diameter circular arena sectioned into 32 grids (16 central grids: 9 cm×9 cm; 16 peripheral grids). The open field was chosen as another environment that provided novelty while at the same time being less physiologically challenging than the previously described two water maze tasks. All rats were given a single 10 min trial in the open field arena and scored for the presence or absence of NIS-L by an experimenter blind to treatment. All testing procedures were conducted according to the guidelines of the Canadian Council on Animal Care.

Sprague Dawley rats [3] = test: NIS-L syndrome during Novel Water Maze (NWM) testing; settings: for animals exhibiting NIS-L syndrome in NWM: tested PND 240; for animals displaying NIS-L syndrome during NWM testing: separate cohort, tested at 15 months
Protocol: To determine if the syndrome could be elicited by novel stimuli other than the MWM, all rats were tested in the Novel Water Maze (NWM) (Kant, G. J., Pharmacol. Biochem. […]
The Novel Water Maze (NWM) (Kant, G. J., Pharmacol. Biochem. Behav. [1993] 44:287-295) was selected based on its provision of a novel environment within which to evaluate the novelty impact on the precipitation of NIS-L. Animals were tested for 6 consecutive swim trials of 60 sec duration and scored for the presence or absence of NIS-L behaviours, by an observer blind to treatment during the 120 sec inter-trial period.

Sprague Dawley rats [4] = test: Daily assessment of pups until weaning for overt toxicity and weight gain; settings: 5 or 20 μg/kg s.c. daily PND 8-PND 14
Protocol: Within 24 hr of birth, offspring of untimed-pregnant Sprague Dawley rats (Charles River Laboratories, St. Constant, PQ) were culled to 10 pups/litter (5 males and 5 females). From post-natal day (PND) 8-PND 14, pups were weighed and given a single daily injection (s.c.; 10 ml/kg) of either saline, or 5 or 20 μg/kg domoic acid (DOM). These doses are well below those normally required to induce toxicity in animals of this age (Doucette, T. A. et al., Neurotox. Teratol. [2003] 25:473-479, and Doucette, T. A., et al., Neurotox. Teratol. [2000] 22:863-869). Pups were assessed daily until weaning (on PND 22) for overt signs of toxicity, and all pre- and post-weaning testing was conducted with the experimenter blind to treatment. All procedures were conducted in accordance with the guidelines of the Canadian Council on Animal Care. […] Rats received no additional drug treatment after PND 14. On PND 120, animals were tested for spatial learning and memory in the Morris Water Maze (MWM) (8 trials/day over 6 consecutive days), using a standard reversal procedure (McNamara, R. K. and Skelton, R. W., Brain Res. Brain Res. Rev. [1993] 18:33-49). […]

C=C(C)[C@H]1CN[C@H](C(=O)O)[C@H]1CC(=O)O [KA, kainic acid]
rats with NIS-L syndrome (study parallel in design to Example 1) (Sprague Dawley rats [1]; female rats, 25 μg/kg neonatally): 16.7% | rats with NIS-L syndrome (study parallel in design to Example 1) (Sprague Dawley rats [1]; female rats, 100 μg/kg neonatally): 57.1% | rats with NIS-L syndrome (study parallel in design to Example 1) (Sprague Dawley rats [1]; male rats, 25 μg/kg neonatally): 62.5% | rats with NIS-L syndrome (study parallel in design to Example 1) (Sprague Dawley rats [1]; male rats, 100 μg/kg neonatally): 62.5% | rats exhibiting NIS-L syndrome in open field arena (Sprague Dawley rats [2]; 25 μg/kg neonatally): 62.5% | rats exhibiting NIS-L syndrome in open field arena (Sprague Dawley rats [2]; 100 μg/kg neonatally): 33.3%

C/C(=C/C=C/[C@@H](C)C(=O)O)[C@H]1CN[C@H](C(=O)O)[C@H]1CC(=O)O [DOM, domoic acid]
animals exhibiting NIS-L syndrome in NWM (Sprague Dawley rats [3]; female rats, 5 μg/kg PND 8-14): 33.3% | animals exhibiting NIS-L syndrome in NWM (Sprague Dawley rats [3]; female rats, 20 μg/kg PND 8-14): 100% | animals displaying NIS-L syndrome during NWM testing (Sprague Dawley rats [3]; female rats, 20 μg/kg PND 8-14): 50% | animals exhibiting NIS-L syndrome in NWM (Sprague Dawley rats [3]; male rats, 5 μg/kg PND 8-14): 33.3% | animals exhibiting NIS-L syndrome in NWM (Sprague Dawley rats [3]; male rats, 20 μg/kg PND 8-14): 66.7% | animals displaying NIS-L syndrome during NWM testing (Sprague Dawley rats [3]; male rats, 20 μg/kg PND 8-14): 50% | animals displaying NIS-L in open field arena (Sprague Dawley rats [2]; 5 μg/kg PND 8-14): 50% | animals displaying NIS-L in open field arena (Sprague Dawley rats [2]; 20 μg/kg PND 8-14): 66.7% | weight gain between groups (Sprague Dawley rats [4]): no significant differences in weight gain | signs of physical or behavioural toxicity prior to weaning (Sprague Dawley rats [4]; pups assessed until PND 22): None of the pups displayed any signs of physical or behavioural toxicity
